From PMC4322365, “A Ligand-observed Mass Spectrometry Approach Integrated into the Fragment Based Lead Discovery Pipeline” (Scientific Reports, 2015)
Values joined by “and” are separate entries in the source; they are usually repeats but may differ in a detail not shown here. Identical values can stand only once.

Each molecule was assayed against T1, HCV RNA polymerase NS5B (Hepatitis C virus genotype 1b, UniProt P26663) (assay: biochemical). Details: 12-hit mixture, P/L 2:1, 1:1, 1:2; theoretical value for about 1 mM affinity.
T1 construct: NS5B with a C-terminal 10-His tag was expressed in E. coli; 10-His (C); made in house; host or cells: E. coli
T1 sequence (P26663 2420-3010): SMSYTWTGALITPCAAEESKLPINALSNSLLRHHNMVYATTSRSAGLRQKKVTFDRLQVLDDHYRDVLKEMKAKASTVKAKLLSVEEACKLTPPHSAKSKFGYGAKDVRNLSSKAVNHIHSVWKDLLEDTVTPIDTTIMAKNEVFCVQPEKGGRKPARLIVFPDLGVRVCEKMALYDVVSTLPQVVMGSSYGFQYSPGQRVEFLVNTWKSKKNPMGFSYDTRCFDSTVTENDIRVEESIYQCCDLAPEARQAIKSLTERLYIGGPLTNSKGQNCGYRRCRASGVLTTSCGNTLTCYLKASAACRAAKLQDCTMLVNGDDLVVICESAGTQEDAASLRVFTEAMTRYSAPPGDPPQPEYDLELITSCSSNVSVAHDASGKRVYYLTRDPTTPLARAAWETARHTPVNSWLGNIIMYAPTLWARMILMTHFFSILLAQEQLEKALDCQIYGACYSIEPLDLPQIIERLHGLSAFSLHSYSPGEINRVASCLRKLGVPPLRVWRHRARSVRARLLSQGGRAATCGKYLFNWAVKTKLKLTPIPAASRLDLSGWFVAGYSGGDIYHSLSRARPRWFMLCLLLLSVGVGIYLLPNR
Type: binding
Description: Binding degree of each fragment represented by the fraction of fragment ligands over the total amount of fragments during incubation reflects the relative order of binding strengths.
In order to determine the dissociation constant of each fragment ligand, we prepared calibration curves for the MS responses of ten fragments in a mixture (Figure S1) and measured the recovery rate of each fragment (Table S3), which were used to derive the actual concentrations of fragments bound to the target. Kd values were then calculated based on the measured concentrations of fragment ligands dissociated from the target (Table S3). […] Ligand efficiency (LE) values were then derived from Kd's as a measure to justify which fragments to further optimize and elaborate in the FBLD pipeline[46][47] (Figure 2A). […] SPR was then implemented for Kd determination for these fragment hits.
All fragments of the library were either purchased from Sigma or synthesized in our laboratory, and their structural diversity was summarized in Figure S4. The mixture was then filtered through an ultrafiltration membrane (50 KD MW cut-off) by centrifugation at 13000 g for 10 min at […]. The protein complexes bound with different fragments were washed twice with 10 mM ammonium acetate (pH 6.5) followed by centrifugation to remove the unbound fragments. The resulting solution of the complexes was transferred to a new centrifugal tube, and the ligands were dissociated from NS5B with 90% methanol in deionized water. The released ligands were then separated from the denatured protein by centrifugation at 13000 g for 10 min at 20°C. The supernatant containing the ligands was evaporated by a speed vacuum, reconstituted in 80% methanol, and analyzed by LC/MS. The protein-free control was prepared by using the binding buffer substitute for NS5B during incubation and it underwent the same process as the NS5B incubated sample. […] Each cocktail was then incubated with NS5B in the binding buffer at the same final concentration as in the primary screen. […] Ultrafiltration and complex dissociation were performed as described earlier to obtain fragment ligands. Samples were all prepared in duplicate and analyzed separately.

| Structure (SMILES) | Binding degree (fraction of fragment ligands over total fragment in incubation) [%] |
| --- | --- |
| Cn1c(=O)cc(O)c2ccccc21 [Fragment 130] | ~2.4 |
| N#CCc1ccc(O)cc1 [Fragment 114] | ~2.4 |

Same assay, conditions: 12-hit mixture; two replicates separated by a slash; S/N > 10 positive; ND: not detected by MS analysis

| Structure (SMILES) | S/N in the validation assay |
| --- | --- |
| Cc1nc2ccccc2nc1C [Fragment 339] | 172.0 and 223.0 |
| Oc1ccc(F)c(Cl)c1 [Fragment 85] | 60.0 and 53.0 |
| N#CC(c1ccccc1)N1CCOCC1 (stereo not drawn) [Fragment 328] | 170.0 and 155.0 |
| Oc1ccc(SC(F)(F)F)cc1 [Fragment 237] | 212.0 and 196.0 |
| Cn1c(=O)cc(O)c2ccccc21 [Fragment 130] | 378.0 and 376.0 |
| N#CCc1ccc(O)cc1 [Fragment 114] | 983.0 and 1198.0 |
| Nc1ccc(C(F)(F)F)cn1 [Fragment 162] | 466.0 and 513.0 |
| O=C(O)c1ccc(C(F)(F)F)cc1 [Fragment 204] | 21.0 and 23.0 |
| Cc1ccc2oc(=O)ccc2c1 [Fragment 117] | 111.0 and 122.0 |
| Cc1cc(N)n(-c2ccccc2)n1 [Fragment 131] | 56.0 and 46.0 |

Same assay, conditions: Figure 2B; S/N factors from two independent experiments, legend says validation assay

| Structure (SMILES) | MS S/N |
| --- | --- |
| Cc1nc2ccccc2nc1C [Fragment 339] | 66 and 62 |
| Oc1ccc(F)c(Cl)c1 [Fragment 85] | 79 and 86 |
| N#CC(c1ccccc1)N1CCOCC1 (stereo not drawn) [Fragment 328] | 17 and 16 |
| Oc1ccc(SC(F)(F)F)cc1 [Fragment 237] | 29 and 36 |
| Cn1c(=O)cc(O)c2ccccc21 [Fragment 130] | 48 and 49 |
| N#CCc1ccc(O)cc1 [Fragment 114] | 103 and 91 |
| Nc1ccc(C(F)(F)F)cn1 [Fragment 162] | 20 and 17 |
| O=C(O)c1ccc(C(F)(F)F)cc1 [Fragment 204] | 22 and 20 |
| Cc1ccc2oc(=O)ccc2c1 [Fragment 117] | 34 and 40 |
| Cc1cc(N)n(-c2ccccc2)n1 [Fragment 131] | 23 and 19 |

Same assay, conditions: Kd, P/L = 1:1, protein 25 μM; estimated from MS-measured bound ligand concentration

| Structure (SMILES) | Kd [mM] |
| --- | --- |
| Cc1nc2ccccc2nc1C [Fragment 339] | 10.2 ± 0.45 |
| N#CC(c1ccccc1)N1CCOCC1 (stereo not drawn) [Fragment 328] | 20 |
| N#CCc1ccc(O)cc1 [Fragment 114] | 1.01 ± 0.06 |

Same assay, conditions: Kd, P/L = 1:2, protein 25 μM

| Structure (SMILES) | Kd [mM] |
| --- | --- |
| Cc1nc2ccccc2nc1C [Fragment 339] | 8.95 ± 2.03 |
| N#CC(c1ccccc1)N1CCOCC1 (stereo not drawn) [Fragment 328] | 26.4 ± 7.92 |
| N#CCc1ccc(O)cc1 [Fragment 114] | 1.2 |

Same assay, conditions: Kd, P/L = 2:1, protein 25 μM

| Structure (SMILES) | Kd [mM] |
| --- | --- |
| Cc1nc2ccccc2nc1C [Fragment 339] | 11.2 ± 1.45 |
| N#CC(c1ccccc1)N1CCOCC1 (stereo not drawn) [Fragment 328] | 23.5 ± 2.65 |
| N#CCc1ccc(O)cc1 [Fragment 114] | 1.13 ± 0.25 |

Same assay, conditions: P/L = 1:1, protein 25 μM; estimated from MS-measured bound ligand concentration; read-out: Kd

| Structure (SMILES) | Kd [mM] |
| --- | --- |
| Oc1ccc(F)c(Cl)c1 [Fragment 85] | 5.67 ± 0.34 |
| Oc1ccc(SC(F)(F)F)cc1 [Fragment 237] | 5.64 ± 0.06 |
| Cn1c(=O)cc(O)c2ccccc21 [Fragment 130] | 1.19 ± 0.08 |
| Nc1ccc(C(F)(F)F)cn1 [Fragment 162] | 8.96 ± 2.49 |
| O=C(O)c1ccc(C(F)(F)F)cc1 [Fragment 204] | 4.04 ± 0.34 |
| Cc1ccc2oc(=O)ccc2c1 [Fragment 117] | 9.31 ± 0.23 |
| Cc1cc(N)n(-c2ccccc2)n1 [Fragment 131] | 13.4 ± 1.98 |

Same assay, conditions: P/L = 1:2, protein 25 μM; read-out: Kd

| Structure (SMILES) | Kd [mM] |
| --- | --- |
| Oc1ccc(F)c(Cl)c1 [Fragment 85] | 6.8 ± 0.99 |
| Oc1ccc(SC(F)(F)F)cc1 [Fragment 237] | 6.45 ± 1.67 |
| Cn1c(=O)cc(O)c2ccccc21 [Fragment 130] | 1.37 ± 0.04 |
| Nc1ccc(C(F)(F)F)cn1 [Fragment 162] | 9.53 ± 0.26 |
| O=C(O)c1ccc(C(F)(F)F)cc1 [Fragment 204] | 5.27 |
| Cc1ccc2oc(=O)ccc2c1 [Fragment 117] | 9.18 ± 2.75 |
| Cc1cc(N)n(-c2ccccc2)n1 [Fragment 131] | 7.29 ± 0.19 |

Same assay, conditions: P/L = 2:1, protein 25 μM; read-out: Kd

| Structure (SMILES) | Kd [mM] |
| --- | --- |
| Oc1ccc(F)c(Cl)c1 [Fragment 85] | 6.2 ± 0.51 |
| Oc1ccc(SC(F)(F)F)cc1 [Fragment 237] | 5.19 ± 0.46 |
| Cn1c(=O)cc(O)c2ccccc21 [Fragment 130] | 0.95 ± 0.08 |
| Nc1ccc(C(F)(F)F)cn1 [Fragment 162] | 10.2 ± 1.3 |
| O=C(O)c1ccc(C(F)(F)F)cc1 [Fragment 204] | 3.78 ± 0.35 |
| Cc1ccc2oc(=O)ccc2c1 [Fragment 117] | 8.96 ± 0.84 |
| Cc1cc(N)n(-c2ccccc2)n1 [Fragment 131] | 12.7 ± 2.03 |

Same assay, conditions: derived from Kd at P/L 1:1 and heavy atom count

| Structure (SMILES) | LE (ligand efficiency) |
| --- | --- |
| Cc1nc2ccccc2nc1C [Fragment 339] | 0.22 |
| Oc1ccc(F)c(Cl)c1 [Fragment 85] | 0.33 |
| N#CC(c1ccccc1)N1CCOCC1 (stereo not drawn) [Fragment 328] | 0.14 |
| Oc1ccc(SC(F)(F)F)cc1 [Fragment 237] | 0.25 |
| Cn1c(=O)cc(O)c2ccccc21 [Fragment 130] | 0.30 |
| N#CCc1ccc(O)cc1 [Fragment 114] | 0.40 |
| Nc1ccc(C(F)(F)F)cn1 [Fragment 162] | 0.25 |
| O=C(O)c1ccc(C(F)(F)F)cc1 [Fragment 204] | 0.25 |
| Cc1ccc2oc(=O)ccc2c1 [Fragment 117] | 0.22 |
| Cc1cc(N)n(-c2ccccc2)n1 [Fragment 131] | 0.20 |

The molecules below were run against T1, HCV RNA polymerase NS5B (assay: Ligand-observed MS secondary screen of 7 subdivided fragment cocktails). Details: 7 cocktails of 50 or 84 fragments; two replicates separated by a slash; S/N > 10 positive; ND: not detected by MS analysis.
Type: binding
Description: To reduce possible false-positives from the primary screen, the library was divided to 7 cocktails among which six consist of 50 fragments and the last one of 84 fragments. Individual cocktails were incubated with NS5B protein prior to protein complex isolation and ligand-observed MS analysis, resulting in a total of 12 positive hits after screening the seven cocktails (Figure 1C). […] Thus the confidence in hit identification was enhanced by selecting hits repetitively found from the two screens against cocktails of different diversity. It is noteworthy that the preliminary hits missed in the secondary screen might be due to either nonspecific binding or co-operative binding that only occurred when the entire library was incubated with the target. Apart from the 12 hits, 25 fragments with S/N < 10 from the secondary screen were regarded non-binders and discarded.
In the primary screening, a mixture of 384 fragments (each at a final concentration of 25 μM) and NS5B at 50 μM was prepared in the binding buffer of 20 mM MES (pH 6.5), 300 mM NaCl and 10% glycerol, and incubated for 40 min at 25°C. All fragments of the library were either purchased from Sigma or synthesized in our laboratory, and their structural diversity was summarized in Figure S4. The mixture was then filtered through an ultrafiltration membrane (50 KD MW cut-off) by centrifugation at 13000 g for 10 min at […]. The protein complexes bound with different fragments were washed twice with 10 mM ammonium acetate (pH 6.5) followed by centrifugation to remove the unbound fragments. The resulting solution of the complexes was transferred to a new centrifugal tube, and the ligands were dissociated from NS5B with 90% methanol in deionized water. The released ligands were then separated from the denatured protein by centrifugation at 13000 g for 10 min at 20°C. The supernatant containing the ligands was evaporated by a speed vacuum, reconstituted in 80% methanol, and analyzed by LC/MS. The protein-free control was prepared by using the binding buffer substitute for NS5B during incubation and it underwent the same process as the NS5B incubated sample. In the secondary screen, 384 fragments were divided into 7 cocktails, each consisting of 50 fragments except for the seventh cocktail of 84 fragments. Each cocktail was then incubated with NS5B in the binding buffer at the same final concentration as in the primary screen. […] Ultrafiltration and complex dissociation were performed as described earlier to obtain fragment ligands. Samples were all prepared in duplicate and analyzed separately.
Aliquots of reconstituted ultrafiltrates were analyzed on a Waters Synapt G1 high-dfinition mass spectrometer (Milford, MA) equipped with a Waters Acquity UPLC system. UPLC separation was carried out on a Waters Acquity BEH C18 column (2.1 mm × 50 mm, 1.7 μm) at a flow rate of 200 μL/min, with the mobile phases of water/0.1% formic acid (A) and acetonitrile/0.1% formic acid (B). In the primary screen, the LC gradient was as follows: 0–15 min, 2–50% B; 15–17 min, 50%–90% B; 17–20 min, 90% B. In the secondary screen and the validation assay, the first fraction of gradient (2–50% B) was shortened to 6 min. The regular ESI ion source operated in both positive- and negative-ion modes. Mass spectra were acquired within a mass range from 100 to 800 m/z, with capillary voltage 3.0 kV in the positive mode and 2.6 kV in the negative mode, sample cone voltage 54 V (positive mode) and 45 V (negative mode), extraction cone voltage 4.7 V (positive mode) and 4.0 V (negative mode), desolvation temperature 350°C, source temperature 100°C, and desolvation gas flow 500 L/h. External calibration with a solution of sodium formate achieved mass accuracy within 10 ppm. LC/MS chromatogram extraction and peak area calculation for specific fragments were performed by use of MassLynx software (v4.1, Waters) based on accurate mass measurement of the compound with a tolerance of 0.01 Da. […]

| Structure (SMILES) | S/N in the 2nd screen |
| --- | --- |
| Cc1nc2ccccc2nc1C [Fragment 339] | 66.2 and 62.4 |
| Oc1ccc(F)c(Cl)c1 [Fragment 85] | 79.0 and 86.0 |
| N#CC(c1ccccc1)N1CCOCC1 (stereo not drawn) [Fragment 328] | 17.4 and 16.3 |
| Oc1ccc(SC(F)(F)F)cc1 [Fragment 237] | 29.0 and 36.0 |
| Cn1c(=O)cc(O)c2ccccc21 [Fragment 130] | 48.4 and 49.4 |
| N#CCc1ccc(O)cc1 [Fragment 114] | 103.0 and 91.0 |
| Nc1ccc(C(F)(F)F)cn1 [Fragment 162] | 19.7 and 17.3 |
| O=C(O)c1ccc(C(F)(F)F)cc1 [Fragment 204] | 22.4 and 19.8 |
| Cc1ccc2oc(=O)ccc2c1 [Fragment 117] | 34.3 and 39.6 |
| Cc1cc(N)n(-c2ccccc2)n1 [Fragment 131] | 23.1 and 19.4 |
